Laboratory results reported in paper PMC6353801, “Enhanced Anti-diabetic Effect of Berberine Combined With Timosaponin B2 in Goto-Kakizaki Rats, Associated With Increased Variety and Exposure of Effective Substances Through Intestinal Absorption” (Frontiers in Pharmacology, 2019).
Like-named read-outs stand apart in the source and are kept apart here.

Experiments:
[1] = tested on: Caco-2 cells; test: Transport in Caco-2 cells; format: in vitro ADME, human; details: Caco-2, no inhibitor; Papp (BL−AP)/Papp (AP−BL)
Experimental: (§1) The culture medium was changed every other day for the first 7 days and then daily for the next 14 days. […] Prior to the transport experiments, the cell monolayers were washed three times with HBSS at 37°C. […] At the same time, the corresponding opposite side was filled with medium as the receiving chamber. After incubation for 30, 60, 90, and 120 min, 250-μl aliquots of the medium was taken from the receiving chamber at each time point, and prepared for analysis by HPLC–MS/MS. […] where (ΔQ/Δt) is the linear slope of the drug concentration in the receptor chamber over time, A represents the surface area of the membrane (1.12 cm^2), and C0 is the initial concentration of drug in the donor chamber. The efflux ratio (ERpermeability) for BL to AP and AP to BL transport was defined by the following equation: […] where Papp (BL–AP) and Papp (AP–BL) are the apparent permeability of drugs from the basolateral (BL) to apical (AP) and AP to BL sides of the monolayer, respectively.

[2] = Transport in Caco-2 cells; format: in vitro ADME, human; details: human; for efflux ratio at 120 min: Caco-2, Caco-2, no inhibitor, Papp (BL−AP)/Papp (AP−BL); for Papp A→B at 120 min / Papp B→A at 120 min: Caco-2, no inhibitor, digoxin 10 μM, TB-2 5 μM, BBR 10 μM
Experimental: as §1

[3] = in vivo; details: male, Wistar, rat, po
[4] = PK in systemic plasma of GK rats after repeated oral administration (day 35); format: in vivo, rat; details: rat, in vivo
Experimental: Analyses were performed on a Shimadzu LCMS-8030 triple quadrupole system (Shimadzu Corp., Japan) equipped with an electrospray ionization source. Data processing was performed using Shimadzu LC–MS LabSolutions (version 5.42 SP4, Shimadzu, Japan). Chromatographic separation was carried out on a Waters CORTECS C18+ column (100 mm × 2.1 mm, 2.7 μm, Ireland) with a security guard C18+ column (5 mm × 2.1 mm, 2.7 μm, Ireland). […] The gradient elution was 85% B from 0 to 2.5 min, 85% B–83% B from 2.5 to 3.0 min, 83% B from 3.0 to 6.0 min, 83% B–40% B from 6.0 to 6.5 min, 40% B from 6.5 to 7.0 min, 40% B–85% B from 7.0 to 7.2 min, and 85% B from 7.2 to 12 min. […] The optimized precursor-to-product ion pairs (collision energy) were in the positive mode as follows: m/z 579.20–255.15 (28 V) for TB-2 (at 4.1 min) and timosaponin A3 (at 6.1 min) and 271.50–154.70 (25 V) for tolbutamide (IS, at 5.8 min). […] If the concentrations of the compounds were over the linear range, the relevant samples were diluted with blank matrix by a factor of 10. […] Four-week-old male GK rats were fed a high-fat diet, and age-matched non-diabetic Wistar rats were fed standard chow as the control group. Under these dietary conditions, blood glucose was estimated each week for 7 weeks in 12-h fasted rats using a portable glucometer (One Touch Sure Step Meter, Johnson & Johnson, United States) by drawing the blood from the tail vein. GK rats with fasting blood glucose levels (FBG) above 16.7 mM were considered as diabetic rats, and only uniformly diabetic rats were used in this study. […] All the drugs were suspended in 0.5% carboxymethylcellulose sodium (CMC-Na) solution for oral gavage (10 ml/kg) once per day (at 9:00) for 6 weeks. Simultaneously, the Wistar and vehicle groups received vehicle over the treatment period. Food consumption and body weight were measured every week throughout the experimental periods. Non-fasting blood glucose (NFBG) levels were determined by collecting blood samples from the tail vein (at 9:00), and FBG levels were determined after a 6-h fast (at 15:00) on days 0, 7, 14, 21, and 42. On day 28, an oral glucose tolerance test (OGTT) was performed after an overnight fast. […] On day 42, the rats were anesthetized with urethane (1.4 g/kg, dissolved in saline) after an overnight fast and were sacrificed to collect the liver, kidney, heart, and spleen. The organs were weighed after washing with saline and drying to calculate the organ coefficient, namely, the ratio between the weight of organs and the body in each rat. The liver samples were diluted with 3 volumes (0.5 g/1.5 ml) of saline and homogenized. The liver homogenates and plasma samples (100 μl) were precipitated with three volumes of acetonitrile (containing 10 μg/ml tolbutamide). […] Then, 100 μl of the original mobile phase was added, and the samples were vortexed for 5 min and centrifuged at 13,000 rpm at 4°C for 10 min. Finally, the supernatant was used for HPLC–QQQ–MS/MS analysis. A non-compartmental analysis was performed using WinNonlin software (Pharsight 6.2, Raleigh, NC, United States) to calculate the PK parameters. The significance of PK parameters in normal rats, generated by the sparse method in WinNonlin, was assessed with Welch’s unequal variances t-test. The significance of the other results was assessed using two-tailed Student’s t-tests. Statistical significance was defined as P < 0.05.

[5] = tested on: GK rats; test: Oral glucose tolerance test (OGTT) in GK rats on day 28; format: in vivo, rat; details: after 4 weeks of treatment, glucose 2 g/kg oral
Experimental: (§2) Four-week-old male GK rats were fed a high-fat diet, and age-matched non-diabetic Wistar rats were fed standard chow as the control group. Under these dietary conditions, blood glucose was estimated each week for 7 weeks in 12-h fasted rats using a portable glucometer (One Touch Sure Step Meter, Johnson & Johnson, United States) by drawing the blood from the tail vein. GK rats with fasting blood glucose levels (FBG) above 16.7 mM were considered as diabetic rats, and only uniformly diabetic rats were used in this study. […] All the drugs were suspended in 0.5% carboxymethylcellulose sodium (CMC-Na) solution for oral gavage (10 ml/kg) once per day (at 9:00) for 6 weeks. Simultaneously, the Wistar and vehicle groups received vehicle over the treatment period. Food consumption and body weight were measured every week throughout the experimental periods. Non-fasting blood glucose (NFBG) levels were determined by collecting blood samples from the tail vein (at 9:00), and FBG levels were determined after a 6-h fast (at 15:00) on days 0, 7, 14, 21, and 42. On day 28, an oral glucose tolerance test (OGTT) was performed after an overnight fast. […] On day 42, the rats were anesthetized with urethane (1.4 g/kg, dissolved in saline) after an overnight fast and were sacrificed to collect the liver, kidney, heart, and spleen. The organs were weighed after washing with saline and drying to calculate the organ coefficient, namely, the ratio between the weight of organs and the body in each rat.

[6] = Body weight, food intake, organ coefficients and side effects in GK rats; format: in vivo, rat
Experimental: as §2

[7] = in vivo; details: male, Wistar, rat, po; remark: listed apart in the source
[8] = ref Cai et al., 2008; cited from earlier work
[9] = male, Wistar, rat, in vivo
[10] = male, Wistar, rat, in vivo; remark: listed apart in the source
[11] = tested on: GK rats; test: NFBG and FBG levels in GK rats, 6-week oral treatment; format: in vivo, rat; details: during 6-week treatment, TB-2 33.3, BBR 66.7, TB-2+BBR 100, metformin 200 mg/kg/day
Experimental: as §2

[12] = tested on: primary rat hepatocytes; test: Hepatic metabolism in primary hepatocytes; details: BBR 1 μM, 3 h, ABT 1 mM, TB-2 0.1 to 30 μM
[13] = read-out: ERpermeability (efflux ratio)
[14] = with BBR 10 μM (co-incubated), Caco-2, TB-2 5 μM in presence of BBR (10 μM), n = 3

SMILES: C[C@H]1O[C@@H](O[C@H]2[C@@H](O)C[C@H](O[C@H]3[C@@H](O)C[C@H](O[C@H]4CC[C@@]5(C)[C@H](CC[C@@H]6[C@@H]5C[C@@H](O)[C@]5(C)[C@@H](C7=CC(=O)OC7)CC[C@]65O)C4)O[C@@H]3C)O[C@@H]2C)C[C@H](O)[C@@H]1O [Digoxin, digoxin]
- ERpermeability (efflux ratio) [1]: 138.8
- efflux ratio at 120 min [2, 13]: ~130
- Papp A→B at 120 min ([2]; n = 3): 0.191 ± 0.02 ×10⁻⁶ cm/s
- Papp B→A at 120 min ([2]; n = 3): 26.5 ± 1.91 ×10⁻⁶ cm/s

SMILES: CC(CCC1(O)OC2CC3C4CCC5CC(OC6OC(CO)C(O)C(O)C6OC6OC(CO)C(O)C(O)C6O)CCC5(C)C4CCC3(C)C2C1C)COC1OC(CO)C(O)C(O)C1O (stereo not shown) [TB-2, timosaponin B2]
- efflux ratio at 120 min [2, 13]: 1.1
- efflux ratio at 120 min, 5 μM ([2]; Caco-2, with BBR 10 μM (co-incubated), Caco-2, TB-2 5 μM in presence of BBR (10 μM), read-out: ERpermeability (efflux ratio)): 1
- Papp A→B at 120 min, 5 μM [2, 14]: 0.081 ± 0.035 ×10⁻⁶ cm/s
- Papp B→A at 120 min, 5 μM [2, 14]: 0.085 ± 0.035 ×10⁻⁶ cm/s
- Papp A→B at 120 min ([2]; n = 3): 0.057 ± 0.032 ×10⁻⁶ cm/s
- Papp B→A at 120 min ([2]; n = 3): 0.061 ± 0.043 ×10⁻⁶ cm/s
- Tmax ([3]; 33.3 mg/kg): 0.2 h
- half-life ([3]; 100 mg/kg): 23.2 h
- Tmax ([3]; 100 mg/kg): 2 h
- AUC ([4]; male, GK, po, 33.3 mg/kg): 100.4 ± 26.2 h ∗ ng/ml
- T1/2 ([4]; male, GK, po, 33.3 mg/kg): 8.6 ± 1.8 h
- Tmax ([4]; male, GK, po, 33.3 mg/kg): 1.1 ± 0.3 h
- AUC ([4]; male, GK, po, 33.3 mg/kg, AUC): 77.5 ± 13.6 ng·h/mL
- half-life ([4]; male, GK, po, 33.3 mg/kg, T1/2): 14.3 ± 5.3 h
- Tmax ([4]; male, GK, po, 33.3 mg/kg, Tmax): 2.1 ± 0.6 h
- increase in AUC on combination vs single treatment [4]: no significant improvement
- increase in Cmax on combination vs single treatment [4]: no significant improvement
- decrease in the AUC of blood glucose in OGTT vs vehicle [5]: didn’t significantly decrease
- effect on body weight or food consumption vs vehicle ([6]; 6-week oral treatment): no effect
- effect on organ coefficients (liver and kidney) vs vehicle ([6]; day 42): limited
- Tmax ([7]; 33.3 mg/kg): 1 h
- Tmax ([7]; 100 mg/kg): 2 h
- half-life ([7]; 100 mg/kg): 22.8 h
- bioavailability [8]: 1.2%
- improvement of levels on co-administration [9]: 141–230%
- ERliver (liver extraction ratio) [10]: 77.8%
- ERliver (liver extraction ratio) ([10]; po, 33.3 mg/kg): 80.6%
- FBG levels compared with the vehicle group (in words) [11]: no significant differences
- NFBG levels compared with the vehicle group (in words) [11]: no significant differences
- effect on BBR metabolism and the generation of M2–M5 [12]: did not significantly affect
